According to publication PMC3447978, “High-Throughput 1,536-Well Fluorescence Polarization Assays for α1-Acid Glycoprotein and Human Serum Albumin Binding” (PLoS ONE, 2012):

How the values were obtained:
[1] = biological target: T1, human serum albumin (HSA) (Homo sapiens, UniProt P02768); assay: biochemical
[2] = biological target: T1, human serum albumin (HSA); assay: HSA 96-well fluorescence polarization displacement assay (dansyl sarcosine probe, Sudlow Site II)
[3] = biological target: T2, α1-acid glycoprotein (AGP) (Homo sapiens, UniProt P02763); assay: AGP LOPAC1280 1,536-well qHTS screen (FP)
T2 sequence (P02763 19-201): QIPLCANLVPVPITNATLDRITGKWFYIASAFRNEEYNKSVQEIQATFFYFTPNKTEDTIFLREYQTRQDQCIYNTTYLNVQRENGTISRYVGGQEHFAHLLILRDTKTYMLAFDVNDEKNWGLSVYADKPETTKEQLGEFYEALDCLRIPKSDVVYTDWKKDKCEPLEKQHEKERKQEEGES

[4] = biological target: T2, α1-acid glycoprotein (AGP); assay: biochemical
[5] = biological target: T2, α1-acid glycoprotein (AGP); assay: in vitro; conditions: human
Procedure: (§1) This system features the proteins of interest covalently bound to the surface of silica beads through the use of proprietary attachment chemistry. The surface was designed to minimize interactions with drug molecules, thus preventing non-specific binding of test substances.
(§2) AGP or HSA protein-coated beads (Sovicell, Leipzig, Germany; distributed by ADMEcell, Emeryville, CA) were thawed at room temperature for two hours. Stock solutions of each compound were diluted to a final sample concentration of 20 µM or 50 µM. Samples (45 µL) were added to 405 µL of premixed solutions of buffer and AGP or HSA coated beads and mixed thoroughly to keep the beads suspended in solution to allow for the compounds to bind to the protein coated beads, [30]. After centrifuging, 100 µL of supernatant were transferred to a 96-well plate and analyzed on an Agilent 1100 HPLC coupled to a diode array detector.
(§3) After equilibrating the column with 50 mM ammonium acetate buffer/acetonitrile (99%/1%) at a flow rate of 500 µL/min for ∼2 minutes, compounds were detected by initiating a five minute gradient to 100% acetonitrile, held for 3 minutes, followed by a one minute gradient to 1% acetonitrile, where the composition was then maintained for the final three minutes, for a total run time of 12 minutes. The diode array detector channels were set to 230 nm, 260 nm, 300 nm, and 340 nm (bandwidth = 5 nm). Data were evaluated using the Sovicell-supplied Microsoft Excel (Redmond, WA) spreadsheets, [44].

[6] = biological target: T1, human serum albumin (HSA); assay: HSA 1,536-well fluorescence polarization displacement assay (dansyl sarcosine probe, Sudlow Site II); format: binding; parameters: Albumin solution from human serum (HSA, Sigma-Aldrich, St. Louis, MO); purchased Sigma-Aldrich; host or cells: human serum
Procedure: For 1,536-well format (Table 2), a 3 µL mixture of HSA and dansyl sarcosine (bound control) or 3 µL of dansyl sarcosine (unbound control) were dispensed into a 1,536-well assay plate using a BioRAPTR. The plate was centrifuged at 1,000 rpm for 15 seconds, covered and incubated for 10 minutes, and FP data were collected on a ViewLux using the optics described above.
FP was measured 15 min after compound addition. Percent inhibition was derived from the bound (i.e., protein-probe complex), or 0% neutral control, and the unbound (i.e., free probe), or 100% displaced control, respectively, by calculating their mean values, and normalizing the data using GraphPad Prism 4.

[7] = biological target: T2, α1-acid glycoprotein (AGP); assay: biochemical; remark: listed apart in the source
HSA protein-coated beads = HSA protein-coated beads (Homo sapiens, UniProt P02768); assay: HSA protein-coated bead assay with HPLC analysis; format: binding; conditions: compound 50 µM
Sequence of HSA protein-coated beads (P02768 25-609): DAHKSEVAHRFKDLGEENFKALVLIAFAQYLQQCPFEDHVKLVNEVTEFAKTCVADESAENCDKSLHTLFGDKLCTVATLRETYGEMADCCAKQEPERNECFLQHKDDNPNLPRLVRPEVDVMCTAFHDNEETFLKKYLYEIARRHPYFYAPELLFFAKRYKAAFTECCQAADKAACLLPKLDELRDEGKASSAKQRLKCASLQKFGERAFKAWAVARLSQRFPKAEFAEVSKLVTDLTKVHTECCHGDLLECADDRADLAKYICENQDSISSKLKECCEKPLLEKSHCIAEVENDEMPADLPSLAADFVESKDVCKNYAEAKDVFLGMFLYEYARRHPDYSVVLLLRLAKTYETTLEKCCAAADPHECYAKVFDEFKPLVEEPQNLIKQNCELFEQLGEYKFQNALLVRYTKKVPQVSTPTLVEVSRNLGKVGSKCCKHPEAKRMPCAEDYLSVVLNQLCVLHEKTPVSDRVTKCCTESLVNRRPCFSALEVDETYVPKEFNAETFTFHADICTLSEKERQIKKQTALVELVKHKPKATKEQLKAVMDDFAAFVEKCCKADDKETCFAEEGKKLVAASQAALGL
Procedure: as §1, §2, §3

[8] = biological target: T1, human serum albumin (HSA); assay: in vitro
AGP protein-coated beads = AGP protein-coated beads (Homo sapiens, UniProt P02763); assay: in vitro; conditions: protein-coated bead Kd values
Sequence of AGP protein-coated beads (P02763 19-201): as the sequence (P02763 19-201) above
Procedure: as §1, §2, §3

[9] = AGP 1,536-well Screen IC50, LOPAC1280 screen, top compound concentration 144 µM
[10] = read-out: HSA 1,536-well IC50 (extrapolated)
[11] = IC50 in AGP LOPAC1280 screen, validation set members present in the LOPAC1280 collection

T1 sequence (P02768 25-609): as the sequence (P02768 25-609) above

IC50 [1] [µM]	IC50 [3] [µM]	IC50 [4] [µM]	SMILES	IC50 [2] [µM]	Kd at 2 min, 50 µM [5] [µM]	also measured
70.8	14.1	2.03	COc1cc2nc(N3CCN(C(=O)OCc4ccccc4)C(C(=O)NC(C)(C)C)C3)nc(N)c2cc1OC [L-765,314]	5.21		
	22.4	23.9	CCC(C)N(C)C(=O)c1cc2ccccc2c(-c2ccccc2Cl)n1 (centres unmarked) [PK 11195]			IC50 ([8]; probe dansyl sarcosine): > 151 µM
		2.51	CC#C[C@]1(O)CC[C@H]2[C@@H]3CCC4=CC(=O)CCC4=C3[C@@H](c3ccc(N(C)C)cc3)C[C@@]21C [Mifepristone, mifepristone]			IC50 [3, 9]: 6.31 µM; IC50 ([8]; probe dansyl sarcosine): > 151 µM
56.2	20	10.5	CCCC(=O)NCCc1c2n(c3ccc(OC)cc13)CCCc1ccccc1-2 [K 185]	83.2		
7.94	> 144		CN(C)c1cc2c(Nc3ccc4c(cnn4Cc4ccccc4)c3)ncnc2cn1 [GW2974]	4.65		
7.94		832	Nc1ccc2c3c(cccc13)C(=O)NC2=O [4-Amino-1,8-naphthalimide, 4-amino-1,8-naphthalimide]	37		IC50 [3, 9]: 11.2 µM
44.7		4.83	OCc1ccc(-c2nn(Cc3ccccc3)c3ccccc23)o1 [YC-1]	5.07		IC50 [3, 9]: 5.62 µM
	35.5	21.7	O=C1N(c2ccccc2)c2ccccc2C1(Cc1ccncc1)Cc1ccncc1 [Linopirdine, linopirdine]			IC50 ([8]; probe dansyl sarcosine): > 151 µM

The next lines start with the compound.

SMILES	IC50 [1] [µM]	IC50 [3] [µM]	IC50 [4] [µM]	IC50 [2] [µM]	Kd at 2 min, 50 µM [5] [µM]	also measured
COc1ccc2c(c1)c(CC(=O)O)c(C)n2C(=O)c1ccc(Cl)cc1 [Indomethacin, indomethacin]					78.8	
C=CCc1ccccc1OCC(O)CNC(C)C (centres unmarked) [Alprenolol, alprenolol]			273	1700	33.8	IC50 ([6]; read-out: HSA 1,536-well IC50): > 1510 µM; IC50 [7]: 276 µM; HSA Kd (HSA protein-coated beads): apparent inability to bind to the HSA protein coated beads
Nc1nc(N)c2nc(CNc3ccc(C(=O)N[C@@H](CCC(=O)O)C(=O)O)cc3)cnc2n1 [Aminopterin, aminopterin]	8.91	56.2	306	22		
COc1ccc(C(CN(C)C)C2(O)CCCCC2)cc1 (centres unmarked) [Venlafaxine, venlafaxine]		> 144	> 1000	> 1000		IC50 [8]: > 151 µM
CCCCC1C(=O)N(c2ccccc2)N(c2ccccc2)C1=O [Phenylbutazone, phenylbutazone]			> 1000		247	IC50 [7]: 1050 µM
OCCN(CCO)c1nc(N2CCCCC2)c2nc(N(CCO)CCO)nc(N3CCCCC3)c2n1 [Dipyridamole, dipyridamole]	40			62.2		IC50 ([6]; read-out: HSA 1,536-well IC50): > 1510 µM; Kd (HSA protein-coated beads): 35.6 µM
CC(C)NCC(O)COc1cccc2ccccc12 (centres unmarked) [Propranolol, propranolol]				5330	19.2	Ratio (HSA Kd / AGP Kd) (AGP protein-coated beads): 29; IC50 [6, 10]: > 1510 µM; IC50 [3, 11]: 50.1 µM; IC50 ([3]; average IC50, intraplate control, AGP screen, LOPAC1280 screen intraplate control): 48.7 µM; Kd (HSA protein-coated beads): 548 µM
CN(C)CCCN1c2ccccc2CCc2ccccc21 [Imipramine, imipramine]				5200	10.4	Ratio (HSA Kd / AGP Kd) (AGP protein-coated beads): 14; IC50 [6, 10]: > 1510 µM; Kd (HSA protein-coated beads): 149 µM
CN(C)CCCN1c2ccccc2Sc2ccc(Cl)cc21 [Chlorpromazine, chlorpromazine]					7.68	IC50 [3, 11]: 44.7 µM
CN(C)CCC=C1c2ccccc2CCc2ccccc21 [Amitriptyline, amitriptyline]			224	6750	1.89	Ratio (HSA Kd / AGP Kd) (AGP protein-coated beads): 63; IC50 ([6]; read-out: HSA 1,536-well IC50): > 1510 µM; IC50 [7]: 221 µM; Kd (HSA protein-coated beads): 119 µM
